Patent publication US20040115209A1, “Compound targeted for specific cells with reduced systemic toxicity” (priority 2000, published 2004)

Columns and labels:
NIH-3T3 cells = assay: MTT cytotoxicity of paclitaxel•MC192, cells that do not express p75; format: cell-based, mouse
Protocol: (§1) The survival profile of the cells was measured with the MTT assay 72 hr after plating.

B104 cells [1] = format: in vivo; details: ˜3.5 nM
Protocol: Nude mice (seven weeks old, female) were used to test the effect of paclitaxel or conjugates in tumor progression. Single cell suspensions of B104 cells (10^5/mouse) were injected subcutaneously in the left flank near the rib cage. Tumor growth was monitored daily. […] Mice were then randomized and treatments were initiated in four groups (n=5 in each group). […] All treatments were done by a total of five injections every two days (for a total of ten days). All injections were done IP on the right side to prevent direct contact of the agents to the tumor growing subcutaneously, and to assure that systemic circulation of the drugs was achieved. Measurements of tumor volume were taken using calipers, every day post treatment for a total of 25 days.
The timeline was: day −14 injection of tumors subcutaneously, days −10, −8, −6, −4, −2 injection of drugs or controls, days 0-25 measurement of tumor growth daily.
Statistical significance of differences in tumor growth among the different treatment groups was determined by the student t test using SYSTAT 7.0 software. P value is significant when it is <0.05.

B104 cells [2] = assay: MTT cytotoxicity of paclitaxel•MC192, B104 cells; format: cell-based, rat; details: addition of 40 nM MC192
Protocol: as §1

B104 cells [3] = assay: Kinetics of paclitaxel cytotoxicity: single bolus versus constant exposure (MTT); format: cell-based, rat
Protocol: It is likely that a single bolus of paclitaxel•antibody conjugate would be delivered because affected cells would not synthesize additional target receptor. Therefore we tested whether a single bolus of paclitaxel would be an effective cytotoxic agent. Cells were exposed to the indicated concentration of paclitaxel for 30 minutes at 4° C. Then, cells were plated in a 96-well plate (Falcon); this group represents treatment with paclitaxel present in a constant manner. The remaining cells were washed free of excess paclitaxel prior to plating; this group represents a single exposure to paclitaxel. […] Optical density readings of MTT were done in an EIA Plate Reader model 2550 (Bio-Rad) at 595 nm.

KB cells = assay: MTT cytotoxicity of Doxorubicin-mAb α-IR3, KB cells; format: cell-based; details: Homo sapiens, 72 h, 3 days, n = 3
Protocol: (§2) Competition of Doxorubicin-α-IR3 cytotoxicity was done by adding a 10-fold molar excess of α-IR3 antibody. The survival profile of the cells was measured with the MTT assay 72 hr after plating.

NWT-b3 cells = details: mouse, 72 h
Protocol: as §2

KB-V cells = assay: MTT cytotoxicity of Doxorubicin-mAb α-IR3, KB-V cells (p-glycoprotein resistant); format: cell-based, human
Protocol: as §2

NIH 3T3 cells = details: mouse fibroblasts
Protocol: as §2

4-3.6 cells = assay: In vitro survival assay in serum free media (MTT), 4-3.6 cells; format: cell-based, rat; details: ˜48 hrs, zVAD 20 nM, conjugate 20 nM VAD equivalent, 1 nM 5C3
Protocol: 4-3.6 cells are placed in serum free media (SFM, PFHM-II, GIBCO, Toronto), where they undergo apoptosis (serum-withdrawal model).
Cells were then cultured for ˜48 hrs. Cell growth/survival was calculated relative to 5% serum (standardized to 100%).

Compound: CC(=O)O[C@H]1C(=O)[C@@]2(C)[C@H]([C@H](OC(=O)c3ccccc3)[C@]3(O)C[C@H](OC(=O)[C@H](O)[C@@H](NC(=O)c4ccccc4)c4ccccc4)C(C)=C1C3(C)C)[C@]1(OC(C)=O)CO[C@@H]1C[C@@H]2O [paclitaxel]
- cytotoxicity on cells that do not express p75 (NIH-3T3 cells): dose-dependent cytotoxicity
- efficacy in vivo at the dose effective for the conjugate (B104 cells [1]): not effective at this dose
- cytotoxicity under ligand competition (B104 cells [2]): same cytotoxicity whether or not 40 nM of mouse IgG or 40 nM of MC192 antibody were added
- cytotoxic effect of a single exposure versus constant exposure (B104 cells [3]; 20 nM, after 72 and 96 hours of culture): significantly less effective than constant exposure
- cytotoxic effect, single exposure versus constant presence (B104 cells [3]; 30 minutes at 4° C. exposure, several concentrations, MTT 48, 72, 96 hr): generally the same whether the drug is present in the culture throughout or after a single exposure

Compound: COc1cccc2c1C(=O)c1c(O)c3c(c(O)c1C2=O)C[C@@](O)(C(=O)CO)C[C@@H]3O[C@H]1C[C@H](N)[C@H](O)[C@H](C)O1 [Doxorubicin]
- IC50 (KB cells): 60 ± 2 nM
- cytotoxicity under ligand competition (NWT-b3 cells): same cytotoxicity whether excess of mlg or α-IR3 was present or not
- IC50 (KB-V cells; Homo sapiens, KBV, 72 h, KB-V cells, 3 days, MTT, n = 3): > 320 nM
- cytotoxicity on multidrug resistant cells (KB-V cells; KB-V compared to sensitive KB cells, with or without Verapamil): inactive on KB-V cells unless Verapamil was added
- cytotoxicity on cells that do not express IGF-IR (NIH 3T3 cells): dose-dependent cytotoxicity

Compound: benzoic acid-Valine-Alanine-Aspartic acid-O-methyl-fluoromethylketone peptide [zVAD]
- 4-3.6 Cell Survival (MTT, % of serum control) (4-3.6 cells): −2 ± 3 % of serum control
